Data on nine molecules can be found in US20240368185A1, “MACROCYCLIC AZOLOPYRIDINES” (Fulcrum Therapeutics, Inc., priority 2021, published 2024).

In brackets after ≈: the same amount, converted by molar mass.

Series [1] can be described thus: Dynamic vapor sorption (DVS) analysis. It counts as physicochemical. The settings on record: between about 2 to about 92% relative humidity (RH) at 25° C. Here is the method:
Dynamic vapor sorption (DVS) analysis was performed using a DVS Intrinsic 1. The sample (25 mg) was loaded into a sample pan, suspended from a microbalance and exposed to a humidified stream of nitrogen gas. The sample was held for a minimum of 5 min at each level and only progressed to the next humidity level if there was <0.002% change in weight between measurements (interval: 60 seconds) or 240 min had elapsed.

Series [2] is classed as physicochemical. On the procedure:
Crystalline, Form W material of (S)-12-fluoro-4-(2-methylpyridin-3-yl)-7a,8,13,14-tetrahydro-7H-[1,2,4]triazolo[4′,3′:1,6]pyrido[3,2-b]benzofuro[4,3-fg][1,4]oxazonine, free base, was prepared as follows. About 2.5 mg of (S)-12-fluoro-4-(2-methylpyridin-3-yl)-7a,8,13,14-tetrahydro-7H-[1,2,4]triazolo[4′,3′:1,6]pyrido[3,2-b]benzofuro[4,3-fg][1,4]oxazonine, maleic acid salt (Form 7-A), was loaded into a vial. 1 mL of water was added, and the mixture was warmed to 37° C. Additional water was added to the slurry, which thinned considerably and then appeared to start precipitating a fine white solid. This was viewed as likely disproportionation and additional water was not added. The mixture was stirred overnight, and the following day the fine solid suspended in the solution was collected and analyzed by XRPD. It was observed that the maleic acid salt had disproportionated over the slurry time.

Series [3] is described as follows: physchem. The series is classed as physicochemical. The settings on record: organic solvent or mixture, thermodynamic from solid. On the procedure: Crystalline, Form V material of (S)-12-fluoro-4-(2-methylpyridin-3-yl)-7a,8,13,14-tetrahydro-7H-[1,2,4]triazolo[4′,3′:1,6]pyrido[3,2-b]benzofuro[4,3-fg][1,4]oxazonine, free base, was prepared as follows. About 12 mg of Form P material was loaded into a 2 mL vial. […] The solution was stirred overnight and the next day a slurry was observed. The slurry solids were collected and analyzed by XRPD.

The nature of series [4]: physchem. As to conditions: organic solvent or mixture, thermodynamic from solid.
Procedure: (§1) An abbreviated polymorph/solvate screen and approximate solubility determination were performed utilizing each class III solvent and several class II solvents as listed under ICH Guidelines Q3C. […] Form P was chosen as the target polymorph for crystallization.
The nature of series [5]: Wet-milling study (ball mill, 30 s, 1 vol. water). It counts as physicochemical. As to conditions: milled with 1 vol. water.
Series [6] can be described thus: Particle size distribution (PSD). The series is classed as physicochemical. On the procedure: Several other Experiments (Experiment 2, Experiment 3, Experiment 4, Experiment 5, Experiment 7, and Experiment 8) were performed to study the effect of seed loading, seed size and scale on particle size of final product.
The material as received was characterized by X-Ray Powder Diffraction (XRPD), Polarized Light Microscopy (PLM), Particle Size Distribution (PSD), Thermo-Gravimetric Analysis (TGA) and Differential Scanning Calorimetry (DSC).
In the second batch, crystals with rod morphology and a length of greater than 200 μm were observed. Two final scaled up batches were performed. A 43 gram batch was produced as small seeds and a 22 gram batch was produced using the first 10 gram batch (Crystallization 1) as large seeds to assess the impact of different size seeds on the process. Scanning electron microscopy (SEM) was used to compliment the polarized light microscope (PLM) and particle size distribution (PSD) measurements.

The conditions of series [7]: 24 h.
Procedure: as §1
Series [8] is described as follows: physchem. As to conditions: 70 °C, organic solvent or mixture, thermodynamic from solid.
Procedure: as §1
Series [9] in a line: Salt screening: XRPD form after exposure to 95%+ relative humidity for one day. As to conditions: solid dried under vacuum at 50° C., then 95%+ relative humidity for one day. It counts as physicochemical. The arrangement: key: Am = amorphous. Here is the method:
A stock solution of Form P material of (S)-12-fluoro-4-(2-methylpyridin-3-yl)-7a,8,13,14-tetrahydro-7H-[1,2,4]triazolo[4′,3′:1,6]pyrido[3,2-b]benzofuro[4,3-fg][1,4]oxazonine, free base, was prepared in 2,2,2-trifluoroethanol (50.8 mg/mL). Stock solutions of counter ion were prepared in EtOH.
Salt formation was carried out at room temperature in 2 mL vials. 25.4 mg of Form P free base material (500 μL stock solution) and 1.1 equivalents of counter ion were added to each vial. Solvent was allowed to evaporate at 40° C. overnight with stirring. […] These vials were kept on the hotplate to continue evaporating (temperature increased to 50° C.), while the more-dry samples were dried further under vacuum for 3 hours at 50° C. The samples still containing solvent at the end of the day were left to stir at 30° C. over the weekend to finish evaporating the solvent. These samples were dried further under vacuum for 3 hours at 50° C.
Approximately 20 volumes of solvent (0.5 mL) was added to each vial containing the dried solids. The three solvents selected were EtOH, EtOAc, and IPA:water (9:1 vol). Once solvents were added, the mixtures (or solutions) were stirred at room temperature. When slurries were formed, the solids were filtered for XRPD analysis.
XRPD analysis was done in three stages. XRPD of the wet cake was done for all collected samples. […]

Setting [10] is: Crystallization 1, 10 gram scale, milled Form P as seeds.
[11] abbreviates: Crystallization 2, 10 gram scale, crystals from Crystallization 1 as seeds.
Where [12] appears, read: Experiment 1, initial process, 0.5 w/w % seed.
Setting [13] is: Experiment 2, effect of seed loading, 0.5 w/w % milled seed.
Setting [14] is: Experiment 3, effect of seed loading, 3.0 w/w % milled seed.
[15] abbreviates: Experiment 4, effect of seed size, 1.0 w/w % large seed.
Setting [16] is: Experiment 5, effect of seed size, 1.0 w/w % milled seed.
[17] abbreviates: Experiment 6, wet milling study, after milling.
The mark [18] stands for this setting: Experiment 6, wet milling study, before milling.
[19] abbreviates: Experiment 7, effect of scale, 3 g scale.
Setting [20] is: Experiment 8, effect of scale, 10 g scale.

In the case of `Cc1ncccc1-c1cc2c(n3cnnc13)NCc1c(F)ccc3c1C(CO3)CO2` (stereo in doubt) [Form E, (S)-12-fluoro-4-(2-methylpyridin-3-yl)-7a,8,13,14-tetrahydro-7H-[1,2,4]triazolo[4′,3′:1,6]pyrido[3,2-b]benzofuro[4,3-fg][1,4]oxazonine], the “DVS reversable total mass change” value in [1] was “about 10.3 wt. %”.

As to “(S)-12-fluoro-4-(2-methylpyridin-3-yl)-7a,8,13,14-tetrahydro-7H-[1,2,4]triazolo[4′,3′:1,6]pyrido[3,2-b]benzofuro[4,3-fg][1,4]oxazonine [Form 7-A]”, the “stability of salt in water slurry” value in series [2] is on record as “disproportionated”.

Turning to `Cc1ncccc1-c1cc2c(n3cnnc13)NCc1c(F)ccc3c1C(CO3)CO2` (stereo in doubt) [Form H, (S)-12-fluoro-4-(2-methylpyridin-3-yl)-7a,8,13,14-tetrahydro-7H-[1,2,4]triazolo[4′,3′:1,6]pyrido[3,2-b]benzofuro[4,3-fg][1,4]oxazonine], in [1], the “DVS reversable total mass change” value is “about 7.6 wt. %”.

On to “(S)-12-fluoro-4-(2-methylpyridin-3-yl)-7a,8,13,14-tetrahydro-7H-[1,2,4]triazolo[4′,3′:1,6]pyrido[3,2-b]benzofuro[4,3-fg][1,4]oxazonine [Form 13-A]”, for which the “DVS reversable total mass change” value in series [1] was “about 0.97 wt. %”.

For “(S)-12-fluoro-4-(2-methylpyridin-3-yl)-7a,8,13,14-tetrahydro-7H-[1,2,4]triazolo[4′,3′:1,6]pyrido[3,2-b]benzofuro[4,3-fg][1,4]oxazonine [Form 8-B]”, the “DVS reversable total mass change” value in series [1] is recorded as “about 0.82 wt. %”.

With `Cc1ncccc1-c1cc2c(n3cnnc13)NCc1c(F)ccc3c1C(CO3)CO2` (stereo in doubt) [Form P, (S)-12-fluoro-4-(2-methylpyridin-3-yl)-7a,8,13,14-tetrahydro-7H-[1,2,4]triazolo[4′,3′:1,6]pyrido[3,2-b]benzofuro[4,3-fg][1,4]oxazonine], the solubility in the series “physchem [3]” is 167 to 333 mg/mL (≈ 414 to 825 mM); in the series “physchem [4]”, over 10000 µg/mL; in “physchem [8]”, 56.7 mg/mL (≈ 140 mM). Also, the “crystallinity and solid form purity after wet milling” value in series [5] was “maintained crystallinity and solid form purity”. The “DVS reversable total mass change” value in series [1] is “about 0.53 wt. %”. The Particle Size Distribution D(10) in [6] (setting [10]) is 37.2 µm; in series [6] (setting [11]), 23.4 µm. Also, the results for the Particle Size Distribution D(50) in [6] (setting [10]) and in series [6] (setting [11]) were 115 µm and 126 µm, respectively. Further, the Particle Size Distribution D(90) in series [6] (setting [10]) is 196 µm; in [6] (setting [11]), 634 µm. Also, the “Particle Size Distribution (PSD) D10” value in series [6] (setting [12]) came to 19 μm; in [6] (setting [13]), 17 μm; in [6] (setting [14]), 7 μm; in series [6] (setting [15]) it was 28 μm; in [6] (setting [16]), 15 μm; in series [6] (setting [17]) it was 11 μm. Also, the “Particle Size Distribution (PSD) D10” value in [6] (setting [18]) amounted to 32 μm; in series [6] (setting [19]), 11 μm; in [6] (setting [20]), 11 μm. Also, the “Particle Size Distribution (PSD) D50” value in series [6] (setting [12]) was determined as 100 μm; in series [6] (setting [13]) it was 93 μm; in [6] (setting [14]), 31 μm; in series [6] (setting [15]), 90 μm; in [6] (setting [16]) it was 82 μm; in [6] (setting [17]), 37 μm. In addition, the “Particle Size Distribution (PSD) D50” value is reported as 199 μm in series [6] (setting [18]), 48 μm in series [6] (setting [19]) and 45 μm in series [6] (setting [20]). Besides, the “Particle Size Distribution (PSD) D90” value in series [6] (setting [12]) was determined as 213 μm; in [6] (setting [13]), 187 μm; in series [6] (setting [14]), 83 μm; in [6] (setting [15]) it was 171 μm; in series [6] (setting [16]) it was 164 μm; in series [6] (setting [17]) it was 95 μm. Further, the “Particle Size Distribution (PSD) D90” value in series [6] (setting [18]) stood at 372 μm; in series [6] (setting [19]), 113 μm; in [6] (setting [20]), 121 μm. In series [6] (starting material as received), this molecule registered a D10 of 1.99 μm. For the same molecule, the D50 in series [6] (starting material as received) is 3.33 μm. The D90 in series [6] (starting material as received) was 5.35 μm. Also, the “purity after slurry (potential degradation)” value in series [7] was found to be 99.9%.

“(S)-12-fluoro-4-(2-methylpyridin-3-yl)-7a,8,13,14-tetrahydro-7H-[1,2,4]triazolo[4′,3′:1,6]pyrido[3,2-b]benzofuro[4,3-fg][1,4]oxazonine [Form 5-A]”: the “DVS reversable total mass change” value in series [1] is on record as “about 3.1 wt. %”.

In the case of “(S)-12-fluoro-4-(2-methylpyridin-3-yl)-7a,8,13,14-tetrahydro-7H-[1,2,4]triazolo[4′,3′:1,6]pyrido[3,2-b]benzofuro[4,3-fg][1,4]oxazonine [Form 10-A]”, in [1], the “DVS reversable total mass change” value is “about 1.4 wt. %”.

Regarding “(S)-12-fluoro-4-(2-methylpyridin-3-yl)-7a,8,13,14-tetrahydro-7H-[1,2,4]triazolo[4′,3′:1,6]pyrido[3,2-b]benzofuro[4,3-fg][1,4]oxazonine [Benzenesulfonic acid (1)]”, the “XRPD Form humidity” value in series [9] (slurry solvent EtOAc) and in series [9] (slurry solvent EtOH) was “Am” in each case.
